Source: patent publication US20150089682A1, “ALS Inhibitor Herbicide Tolerant B. Napus Mutants” (priority 2012, published 2015)

What was measured:
[1] = molecular target: T1, Arabidopsis thaliana P197S-mutant ALS (Arabidopsis thaliana, UniProt P17597, E575Q/P197S); assay: biochemical; settings: for IC50: read-out: pI50 P197S (converted); for Resistance Factor P197S: relative to WT, from measured pI50
T1 construct: vector-encoded N-terminal fusion of pET-32a(+) (Trx/His/S tag by own knowledge); made in house; host or cells: Escherichia coli AD494
Procedure: (§1) Bacteria were grown at 37° C. in LB-medium containing 100 mg/1 carbenicillin and 25 mg/1 canamycin, induced with 1 mM isopropyl-β-D-thiogalactopyranoside at an OD600 of 0.6, cultivated for 16 hours at 18° C. and harvested by centrifugation. Bacterial pellets were resusupended in 100 mM sodium phosphate buffer pH 7.0 containing 0.1 mM thiamine-pyrophosphate, 1 mM MgCl2, and 1 μM FAD at a concentration of 1 gram wet weight per 25 ml of buffer and disrupted by sonification. The crude protein extract obtained after centrifugation was used for ALS activity measurements.
(§2) Assays were initiated by adding enzyme and terminated after 75 min incubation at 30° C. by the addition to 40 μl 0.5 M H2SO4. […] Reaction velocities were tiffed to the Michalis-Menten equation with the XLFit curve fitting program.

[2] = molecular target: T2, Arabidopsis thaliana W574L-mutant ALS (Arabidopsis thaliana, UniProt P17597, E575Q/W574L); assay: biochemical; settings: for IC50: read-out: pI50 W574L (converted); for Resistance Factor W574L: relative to WT, from measured pI50
T2 construct: vector-encoded N-terminal fusion of pET-32a(+) (Trx/His/S tag by own knowledge); made in house; host or cells: Escherichia coli AD494
Procedure: as §1, §2

[3] = molecular target: T3, Arabidopsis thaliana wild-type ALS (Arabidopsis thaliana, UniProt P17597, E575Q); assay: biochemical; settings: measured, crude extract of E. coli expressed enzyme; for IC50: read-out: pI50 WT (converted)
T3 construct: vector-encoded N-terminal fusion of pET-32a(+) (Trx/His/S tag by own knowledge); made in house; host or cells: Escherichia coli AD494
Procedure: as §1, §2

[4] = molecular target: T4, Arabidopsis thaliana S653N-mutant ALS (Arabidopsis thaliana, UniProt P17597, E575Q/S653N); assay: biochemical; settings: for IC50: read-out: pI50 S653N (converted); for Resistance Factor S653N: relative to WT, from measured pI50
T4 construct: vector-encoded N-terminal fusion of pET-32a(+) (Trx/His/S tag by own knowledge); made in house; host or cells: Escherichia coli AD494
Procedure: as §1, §2

[5] = molecular target: T5, mixture of P197S and W574L ALS enzymes (Arabidopsis thaliana, UniProt P17597); assay type: biochemical; settings: for pI50 P197S & W574L: calculated for a mixture of equal activities of the two enzymes, pI50=3.0 used where measured <4; for Resistance Factor P197S & W574L: relative to WT, calculated
T5 construct: crude E. coli extract was used
Procedure: as §2
(§3) To characterize the response of a mixture of two different ALS enzymes to a given ALS inhibitor the following assumptions were made: • a inhibition is competitive and reversible • b. in the absence of inhibitor, equal activities of the ALS (mutant) enzymes 1 and 2 are present
(§4) Using experimentally determined pI50-values for various ALS-inhibiting herbicides, enzyme activities at different inhibitor concentrations were calculated (see Theory) for each ALS enzyme. Total ALS activity at any given inhibitor concentration is the sum of the activity of (mutant) enzyme 1 and (mutant) enzyme 2. If the experimentally determined pI50-value was <4, pI50=3.0 was used for the calculations. If the calculated pI50-value was 3.0, the pI50 was redefined as <4.

[6] = molecular target: T6, mixture of S653N and W574L ALS enzymes (Arabidopsis thaliana, UniProt P17597); assay type: biochemical; settings: for pI50 S653N & W574L: calculated for a mixture of equal activities of the two enzymes, pI50=3.0 used where measured <4; for Resistance Factor S653N & W574L: relative to WT, calculated
T6 construct: crude E. coli extract was used
Procedure: as §2, §3, §4

[7] = test system: spring oilseed rape variety ABILITY; assay: Herbicide tolerance in the field, visible phytotoxicity; assay type: in vivo, Brassica napus
Description: (§5) Seeds of spring oilseed rape homozygous for HETO108 and HETO121 were sown in a field according to typical practical agricultural methods. The registered spring oilseed rape variety ABILITY served as a comparison. All plants were cultivated up to BBCH stage 14 (four true leaves of the oilseed rape plants). Afterwards, the herbicides mentioned in table 2 have been applied to the oilseed rape plants by using specific spray equipment for small plot applications. The water amount used was 200 L/ha.

[8] = test system: spring oilseed rape homozygous for HETO108 and HETO121; assay: as above; assay type: in vivo, Brassica napus
Description: as §5

[9] = measured, crude extract of E. coli expressed enzyme
[10] = Brassica napus, topical, 432 h, ABILITY, AI dose rate 50 gai/ha, field, 18 days after application, 0%=no phytotoxic effects, 100%=all plants killed, read-out: % phytotox
[11] = Brassica napus, topical, 432 h, HETO108-HETO121, AI dose rate 50 gai/ha, field, 18 days after application, 0%=no phytotoxic effects, 100%=all plants killed, read-out: % phytotox
[12] = Brassica napus, topical, 432 h, read-out: % phytotox

Compound | IC50 [1, 9] [nM] | Resistance Factor P197S [1] | IC50 [2, 9] [nM] | Resistance Factor W574L [2] | IC50 [3] [nM] | IC50 [4, 9] [nM] | Resistance Factor S653N [4] | pI50 P197S & W574L [5] | Resistance Factor P197S & W574L [5] | pI50 S653N & W574L [6] | Resistance Factor S653N & W574L [6] | also measured
COC(=O)c1sccc1S(=O)(=O)NC(=O)Nc1nc(C)nc(OC)n1 [Thifensulfuron-Methyl, thifensulfuron-methyl] | 7940 | 200 | 63100 | 1585 | 39.8 | 200 | 5 | 4.6 | 631 | 5.4 | 100 | pest or weed control at 5 g/ha ([7]; Brassica napus, topical, 432 h, ABILITY, AI dose rate 5 gai/ha, field, 18 days after application, 0%=no phytotoxic effects, 100%=all plants killed, read-out: % phytotox): 85%; pest or weed control at 5 g/ha ([8]; Brassica napus, topical, 432 h, HETO108-HETO121, AI dose rate 5 gai/ha, field, 18 days after application, 0%=no phytotoxic effects, 100%=all plants killed, read-out: % phytotox): 0%
COc1cc(OC)nc(NC(=O)NS(=O)(=O)N(C)S(C)(=O)=O)n1 [Amidosulfuron, amidosulfuron] | > 100000 | >501 | > 100000 | >501 | 200 | 7.94 | 0 | <4 | >501 | 5.6 | 13 | pest or weed control at 30 g/ha ([7]; Brassica napus, topical, 432 h, ABILITY, AI dose rate 30 gai/ha, field, 18 days after application, 0%=no phytotoxic effects, 100%=all plants killed, read-out: % phytotox): 98%; pest or weed control at 30 g/ha ([8]; Brassica napus, topical, 432 h, HETO108-HETO121, AI dose rate 30 gai/ha, field, 18 days after application, 0%=no phytotoxic effects, 100%=all plants killed, read-out: % phytotox): 3%
CCOc1ccccc1OS(=O)(=O)NC(=O)Nc1nc(OC)cc(OC)n1 [Ethoxysulfuron, ethoxysulfuron] | – | – | – | – | – | – | – | – | – | – | – | pest or weed control at 180 g/ha ([7]; Brassica napus, topical, 432 h, ABILITY, AI dose rate 180 gai/ha, field, 18 days after application, 0%=no phytotoxic effects, 100%=all plants killed, read-out: % phytotox): 100%; pest or weed control at 180 g/ha ([8]; Brassica napus, topical, 432 h, HETO108-HETO121, AI dose rate 180 gai/ha, field, 18 days after application, 0%=no phytotoxic effects, 100%=all plants killed, read-out: % phytotox): 70%
COC(=O)c1ccccc1S(=O)(=O)NC(=O)N(C)c1nc(C)nc(OC)n1 [Tribenuron-methyl, tribenuron-methyl] | – | – | – | – | – | – | – | – | – | – | – | pest or weed control at 20 g/ha ([7]; Brassica napus, topical, 432 h, ABILITY, AI dose rate 20 gai/ha, field, 18 days after application, 0%=no phytotoxic effects, 100%=all plants killed, read-out: % phytotox): 99%; pest or weed control at 20 g/ha ([8]; Brassica napus, topical, 432 h, HETO108-HETO121, AI dose rate 20 gai/ha, field, 18 days after application, 0%=no phytotoxic effects, 100%=all plants killed, read-out: % phytotox): 5%
COc1cc(OC)nc(Oc2cccc(Oc3nc(OC)cc(OC)n3)c2C(=O)O)n1 [Bispyribac-sodium, bispyribac-sodium] | 79.4 | 4 | 7940 | 398 | 20 | 251 | 13 | 6.1 | 40 | 5.8 | 79 | pest or weed control at 50 g/ha [7, 10]: 100%; pest or weed control at 50 g/ha [8, 11]: 75%
COc1cc(OC)nc(NC(=O)NS(=O)(=O)c2ncccc2C(F)(F)F)n1 [Flazasulfuron, flazasulfuron] | 100 | 126 | 3160 | 3981 | 0.794 | 0.316 | 0 | 6.2 | 794 | 7.5 | 40 | pest or weed control at 50 g/ha [7, 10]: 100%; pest or weed control at 50 g/ha [8, 11]: 80%
COc1cc(OC)n2nc(NS(=O)(=O)c3c(C(F)(F)F)ccnc3OC)nc2n1 [Pyroxsulam, pyroxsulam] | – | 251 | – | >39810 | – | – | 63 | 4.8 | 6310 | 5.3 | 1995 | pI50 P197S [1, 9]: 6.2; pI50 W574L [2, 9]: <4; pI50 WT [3]: 8.6; pI50 S653N [4, 9]: 6.8; % phytotox ([7]; ABILITY, AI dose rate 50 gai/ha, field, 18 days after application, 0%=no phytotoxic effects, 100%=all plants killed): 99%; % phytotox ([8]; HETO108-HETO121, AI dose rate 50 gai/ha, field, 18 days after application, 0%=no phytotoxic effects, 100%=all plants killed): 0%
COC(=O)c1ccc(C(F)(F)F)nc1S(=O)(=O)NC(=O)Nc1nc(OC)cc(OC)n1 [Flupyrsulfuron-methyl, flupyrsulfuron-methyl-sodium] | – | – | – | – | – | – | – | – | – | – | – | pest or weed control at 10 g/ha [7, 12]: 100%; pest or weed control at 10 g/ha [8, 12]: 35%
iodosulfuron-methyl-sodium [Iodosulfuron-methy-sodium] | – | 158 | – | 631 | – | – | 10 | – | – | – | 79 | % phytotox ([7]; ABILITY, AI dose rate 7 gai/ha, field, 18 days after application, 0%=no phytotoxic effects, 100%=all plants killed): 100%; % phytotox ([8]; HETO108-HETO121, AI dose rate 7 gai/ha, field, 18 days after application, 0%=no phytotoxic effects, 100%=all plants killed): 43%
CCCOc1nn(C(=O)[N-]S(=O)(=O)c2ccccc2C(=O)OC)c(=O)n1C.[Na+] [Propoxycarbazone, propoxycarbazone-sodium] | – | 158 | – | 316 | – | – | 25 | – | 200 | – | 100 | % phytotox ([7]; ABILITY, AI dose rate 70 gai/ha, field, 18 days after application, 0%=no phytotoxic effects, 100%=all plants killed): 100%; % phytotox ([8]; HETO108-HETO121, AI dose rate 70 gai/ha, field, 18 days after application, 0%=no phytotoxic effects, 100%=all plants killed): 65%
COC(=O)c1ccccc1S(=O)(=O)NC(=O)Nc1nc(C)nc(OC)n1 [Metsulfuron-methyl, metsulfuron-methyl] | – | 50 | – | 1000 | – | – | 6 | – | 251 | – | 79 | % phytotox ([7]; ABILITY, AI dose rate 8 gai/ha, field, 18 days after application, 0%=no phytotoxic effects, 100%=all plants killed): 100%; % phytotox ([8]; HETO108-HETO121, AI dose rate 8 gai/ha, field, 18 days after application, 0%=no phytotoxic effects, 100%=all plants killed): 73%
COC(=O)c1ccc(CNS(C)(=O)=O)cc1S(=O)(=O)NC(=O)Nc1nc(OC)cc(OC)n1 [Mesosulfaron-methyl, mesosulfuron-methyl] | – | 79 | – | 31623 | – | – | 16 | – | 794 | – | 200 | % phytotox ([7]; ABILITY, AI dose rate 15 gai/ha, field, 18 days after application, 0%=no phytotoxic effects, 100%=all plants killed): 99%; % phytotox ([8]; HETO108-HETO121, AI dose rate 15 gai/ha, field, 18 days after application, 0%=no phytotoxic effects, 100%=all plants killed): 30%
